PMC11627468, “Novel enzyme‐resistant pancreatic polypeptide analogs evoke pancreatic beta‐cell rest, enhance islet cell turnover, and inhibit food intake in mice” (Biofactors (Oxford, England), 2024)

Key:
BRIN‐BD11 beta‐cells = experiment: Beta‐cell proliferation (Ki‐67 staining); type: cell-based; details: peptide 10^−6 M, versus control cultures, n = 3
Procedure: (§1) To assess the effects of PP and related peptides (10^−8 and 10^−6 M) on beta‐cell proliferation and apoptosis, BRIN‐BD11 beta‐cells were seeded onto sterilized, clear‐glass coverslips (16 mm diameter) and placed in 12‐well plates (Falcon Ltd) at a density of 40,000 cells per well and cultured for 18 h. Media control (11.1 mM glucose), GLP‐1 (10^−8 and 10^−6 M), and a cytokine cocktail mix (IL‐1β [100 U/mL], IFNγ [20 U/mL], TNFα [200 U/mL], Sigma Aldrich, UK) were employed as controls, as appropriate. Cells were then rinsed with PBS and fixed using 4% paraformaldehyde. After antigen retrieval with sodium citrate buffer at 95°C for 20 min, blocking was performed using 2% bovine serum albumin (BSA) for 45 min. For proliferation studies, the slips were then incubated at 37°C with rabbit anti‐Ki‐67 primary antibody (Abcam, ab15580), and subsequently with Alexa Fluor® 488 secondary antibody. Coverslips were mounted onto polylysine‐coated microscope slides using a 50:50 glycerol:PBS solution and stored at 4°C until required for analysis. To assess the ability of PP peptides to protect against cytokine‐induced apoptosis, cells were seeded, washed, and fixed as above, with the exception that the media was supplemented with the cytokine mix. The slips were then incubated at 37°C with TUNEL reaction mix for 60 min (Roche Diagnostics, Germany), and mounted onto microscope slides. To assess receptor specificity, co‐incubation of PP peptides with the well characterized NPY4R antagonist, (S)‐VU0637120,[24] at 10^−5 M was employed for beta‐cell proliferation experiments, conducted as detailed above. All slides were viewed using a fluorescent microscope (Olympus System Microscope, model BX51; Southend‐on‐Sea, UK) and photographed by DP70 camera adapter system. Proliferation/TUNEL positive frequency was determined using the cell‐counter function on ImageJ Software and expressed as % of total cells analyzed.

[1] = in vivo; cited from earlier work
Procedure: Despite these prominent therapeutically exploitable advantages, clinical utilization of native PP as a positive NPY4R modulator is limited by a short circulatory half‐life of less than 7 min.[17] This appears to be due to rapid cleavage of the N‐terminal dipeptide, Ala^1‐Pro^2, from PP by the ubiquitous enzyme dipeptidyl peptidase‐4 (DPP‐4).[18] […] As such, DPP‐4 resistant PP mole ...

C57BL/6 mice [2] = experiment: Acute food intake in overnight fasted mice; type: in vivo; details: n = 6
Procedure: (§2) Acute in vivo studies were conducted in groups (n = 6) of 4‐month‐old male C57BL/6 mice (Envigo, Huntington, UK). All mice were maintained on standard rodent chow (10% fat, 30% protein, and 60% carbohydrate; Trouw Nutrition, Northwich, UK), and drinking water provided ad libitum. Mice were housed individually and kept in a temperature‐controlled environment (22 ± 2°C), with a 12‐h light/dark cycle. Experiments were carried out in accordance with the UK Animal Scientific Procedures Act 1986 as well as being approved by Ulster University Animal Ethics Review Committee (AWERB) committee and protected by the UK Home Office Animal project license number PPL2902, approved on April 26, 2021. Acute effects of test peptides on food intake were tested in overnight (16 h) fasted mice. Briefly, fasted mice were administered an intraperitoneal (i.p.) injection of saline vehicle (0.9% (w/v) NaCl) alone or in combination with test peptides (each at 25, 75, or 200 nmol/kg bw) and cumulative food intake measured at regular intervals, to assess the pharmacodynamic profile of the test peptides. For food intake studies, mice were provided with preweighed rodent maintenance diet in their food hopper at t = 0 min, which was then re‐weighed at each timepoint with all due care taken to account for any wastage or crumbling of the food pellets. In this regard, the investigator was present at all times during the 180‐min test period to ensure accuracy and consistency in all measurements. Furthermore, effects of PP or related peptides (25 nmol/kg bw) on glucose homeostasis and insulin secretion were evaluated in overnight fasted mice following i.p. injection of glucose alone (18 mmol/kg bw) or in combination with PP peptides (each at 25 nmol/kg bw).

C57BL/6 mice [3] = experiment: Glucose‐stimulated plasma insulin in mice; type: in vivo; details: peptide 25 nmol/kg with glucose 18 mmol/kg i.p., versus glucose control; n = 6
Procedure: as §2, with “bw). […] Blood glucose was measured immediately using a hand‐held Ascencia Contour blood glucose meter (Bayer Healthcare, Newbury, Berkshire, UK). For plasma insulin, blood was collected in chilled fluoride/heparin‐coated microcentrifuge tubes (Sarstedt, Numbrecht, Germany) and centrifuged using a Beckman microcentrifuge (Beckman Instruments, Galway, Ireland) for 10 min at 12,000 rpm. Plasma was separated and stored at −20°C, until determination of plasma insulin by radioimmunoassay.[23]” for “bw).”

NPY4R = biological target: T1, NPY4R (Rattus norvegicus, UniProt Q63447); experiment: Receptor specificity: beta‐cell proliferation with NPY4R antagonist (S)‐VU0637120; type: cell-based; details: peptide 10^−6 M co‐incubated with NPY4R antagonist (S)‐VU0637120 10^−5 M; Ki‐67; n = 3
T1 construct: endogenous in cells; host or cells: BRIN-BD11 beta cells
T1 sequence (Q63447 whole entry): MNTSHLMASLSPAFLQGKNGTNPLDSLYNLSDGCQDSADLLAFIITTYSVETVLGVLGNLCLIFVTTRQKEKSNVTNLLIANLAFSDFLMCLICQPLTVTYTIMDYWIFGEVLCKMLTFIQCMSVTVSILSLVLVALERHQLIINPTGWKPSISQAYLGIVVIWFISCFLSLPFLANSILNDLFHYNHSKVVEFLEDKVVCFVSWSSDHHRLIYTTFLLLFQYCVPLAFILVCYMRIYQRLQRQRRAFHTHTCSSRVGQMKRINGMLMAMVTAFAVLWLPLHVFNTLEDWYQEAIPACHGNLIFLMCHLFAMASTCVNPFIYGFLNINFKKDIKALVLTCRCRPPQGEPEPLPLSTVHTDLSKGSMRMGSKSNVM
Procedure: as §1, with “The slips were then incubated at 37°C with TUNEL reaction mix for 60 min (Roche Diagnostics, Germany), and mounted onto microscope slides. To assess receptor specificity, co‐incubation of PP peptides with the well characterized NPY4R antagonist, (S)‐VU0637120,[24] at 10^−5 M was employed for beta‐cell proliferation experiments, conducted as detailed above. All slides were viewed using a fluorescent microscope (Olympus System Microscope, model BX51; Southend‐on‐Sea, UK) and photographed by DP70 camera adapter system.” left out

CC[C@H](C)[C@H](NC(=O)[C@H](Cc1ccc(O)cc1)NC(=O)[C@H](CCCNC(=N)N)NC(=O)[C@H](CCCNC(=N)N)NC(=O)[C@H](CC(C)C)NC(=O)[C@H](CC(=O)O)NC(=O)[C@H](C)NC(=O)[C@H](C)NC(=O)[C@H](Cc1ccc(O)cc1)NC(=O)[C@H](CCC(N)=O)NC(=O)[C@H](C)NC(=O)[C@H](CCSC)NC(=O)[C@H](CCC(N)=O)NC(=O)[C@H](CCC(=O)O)NC(=O)[C@@H]1CCCN1C(=O)[C@@H](NC(=O)[C@H](C)NC(=O)[C@H](CC(N)=O)NC(=O)[C@H](CC(=O)O)NC(=O)CNC(=O)[C@@H]1CCCN1C(=O)[C@H](Cc1ccc(O)cc1)NC(=O)[C@@H](NC(=O)[C@@H]1CCCN1C(=O)[C@H](CCC(=O)O)NC(=O)[C@H](CC(C)C)NC(=O)[C@@H]1CCCN1C(=O)[C@H](C)N)C(C)C)[C@@H](C)O)C(=O)N[C@@H](CC(N)=O)C(=O)N[C@@H](CCSC)C(=O)N[C@@H](CC(C)C)C(=O)N[C@H](C(=O)N[C@@H](CCCNC(=N)N)C(=O)N1CCC[C@H]1C(=O)N[C@@H](CCCNC(=N)N)C(=O)N[C@@H](Cc1ccc(O)cc1)C(N)=O)[C@@H](C)O [PP, Pancreatic polypeptide]
BRIN‐BD11 cell proliferation (BRIN‐BD11 beta‐cells): significantly (p < 0.001) enhanced
circulatory half‐life [1]: less than 7 min
cumulative food intake (appetite suppression) (C57BL/6 mice [2]; 25 nmol/kg i.p., overnight (16 h) fasted mice, up to 180 min, versus saline): particularly effective
food intake in combination with CCK‐8 (C57BL/6 mice [2]; PP peptide 25 nmol/kg with CCK‐8 25 nmol/kg i.p., fasted mice, compared with CCK‐8): significantly (p = <0.05 to 0.01) augment this effect from 90 min onwards
food intake in combination with exendin‐4 (C57BL/6 mice [2]; PP peptide 25 nmol/kg with exendin‐4 0.25 nmol/kg i.p., fasted mice): additive appetite suppressive actions
glucose‐induced insulin secretion (plasma insulin) (C57BL/6 mice [3]): slightly decreasing (p = <0.05 to 0.01)
dependence of beta‐cell proliferative benefit on NPY4R signaling (NPY4R): dependent on NPY4R signaling
